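Five compound concentrations were applied to cells in 96-well plates for 48 hours; endpoints were derived by simple linear interpolation of the resulting dose-response curve. TGI: concentration producing complete growth inhibition.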
How the values were obtained:
Test in all cases: NCI-60 cell line screen, 48 h
IGROV1 ovarian = tested on: IGROV1 ovarian
CAKI-1 renal = tested on: CAKI-1 renal
SF-539 CNS = tested on: SF-539 CNS
NCI-H460 lung = tested on: NCI-H460 lung
M14 melanoma = tested on: M14 melanoma
UACC-257 melanoma = tested on: UACC-257 melanoma
OVCAR-3 ovarian = tested on: OVCAR-3 ovarian
MCF7 breast = tested on: MCF7 breast
OVCAR-5 ovarian = tested on: OVCAR-5 ovarian
MDA-MB-231 breast = tested on: MDA-MB-231 breast
MOLT-4 leukemia = tested on: MOLT-4 leukemia
UACC-62 melanoma = tested on: UACC-62 melanoma
U251 CNS = tested on: U251 CNS
TK-10 renal = tested on: TK-10 renal
SN12C renal = tested on: SN12C renal
HL-60(TB) leukemia = tested on: HL-60(TB) leukemia
SF-268 CNS = tested on: SF-268 CNS
SF-295 CNS = tested on: SF-295 CNS
T-47D breast = tested on: T-47D breast
SK-MEL-5 melanoma = tested on: SK-MEL-5 melanoma
KM12 colon = tested on: KM12 colon
HOP-62 NSCLC = tested on: HOP-62 NSCLC
UO-31 renal = tested on: UO-31 renal
HS 578T breast = tested on: HS 578T breast
COLO 205 colon = tested on: COLO 205 colon
CCRF-CEM leukemia = tested on: CCRF-CEM leukemia
DU-145 prostate = tested on: DU-145 prostate
SK-MEL-28 melanoma = tested on: SK-MEL-28 melanoma
MDA-N = tested on: MDA-N
PC-3 prostate = tested on: PC-3 prostate
RPMI-8226 leukemia = tested on: RPMI-8226 leukemia
EKVX NSCLC = tested on: EKVX NSCLC
HCT-116 colon = tested on: HCT-116 colon
786-0 renal = tested on: 786-0 renal
HCC-2998 colon = tested on: HCC-2998 colon
A498 renal = tested on: A498 renal
LOX IMVI melanoma = tested on: LOX IMVI melanoma
NCI-H522 lung = tested on: NCI-H522 lung
NCI-H23 lung = tested on: NCI-H23 lung
SK-OV-3 ovarian = tested on: SK-OV-3 ovarian
MDA-MB-435 = tested on: MDA-MB-435
ACHN renal = tested on: ACHN renal
SW-620 colon = tested on: SW-620 colon
SNB-19 CNS = tested on: SNB-19 CNS
A549 NSCLC = tested on: A549 NSCLC
OVCAR-4 ovarian = tested on: OVCAR-4 ovarian
K-562 leukemia = tested on: K-562 leukemia
MALME-3M melanoma = tested on: MALME-3M melanoma
BT-549 breast = tested on: BT-549 breast
HCT-15 colon = tested on: HCT-15 colon
NCI/ADR-RES ovarian = tested on: NCI/ADR-RES ovarian
SK-MEL-2 melanoma = tested on: SK-MEL-2 melanoma
HT29 colon = tested on: HT29 colon
OVCAR-8 ovarian = tested on: OVCAR-8 ovarian
NCI-H226 lung = tested on: NCI-H226 lung
SNB-75 CNS = tested on: SNB-75 CNS
RXF 393 renal = tested on: RXF 393 renal
HOP-92 NSCLC = tested on: HOP-92 NSCLC

Structure (SMILES): CC(C)=CCC/C(C)=C/CO
- TGI (IGROV1 ovarian): > 100 µM
- TGI (CAKI-1 renal): > 100 µM
- TGI (SF-539 CNS): > 100 µM
- TGI (NCI-H460 lung): > 100 µM
- TGI (M14 melanoma): > 100 µM
- TGI (UACC-257 melanoma): > 100 µM
- TGI (OVCAR-3 ovarian): > 100 µM
- TGI (MCF7 breast): > 100 µM
- TGI (OVCAR-5 ovarian): > 100 µM
- TGI (MDA-MB-231 breast): > 100 µM
- TGI (MOLT-4 leukemia): > 100 µM
- TGI (UACC-62 melanoma): > 100 µM
- TGI (U251 CNS): > 100 µM
- TGI (TK-10 renal): > 100 µM
- TGI (SN12C renal): > 100 µM
- TGI (HL-60(TB) leukemia): > 100 µM
- TGI (SF-268 CNS): > 100 µM
- TGI (SF-295 CNS): > 100 µM
- TGI (T-47D breast): > 100 µM
- TGI (SK-MEL-5 melanoma): > 100 µM
- TGI (KM12 colon): > 100 µM
- TGI (HOP-62 NSCLC): > 100 µM
- TGI (UO-31 renal): > 100 µM
- TGI (HS 578T breast): > 100 µM
- TGI (COLO 205 colon): > 100 µM
- TGI (CCRF-CEM leukemia): > 100 µM
- TGI (DU-145 prostate): > 100 µM
- TGI (SK-MEL-28 melanoma): > 100 µM
- TGI (MDA-N): > 100 µM
- TGI (PC-3 prostate): > 100 µM
- TGI (RPMI-8226 leukemia): > 100 µM
- TGI (EKVX NSCLC): > 100 µM
- TGI (HCT-116 colon): > 100 µM
- TGI (786-0 renal): > 100 µM
- TGI (HCC-2998 colon): > 100 µM
- TGI (A498 renal): > 100 µM
- TGI (LOX IMVI melanoma): > 100 µM
- TGI (NCI-H522 lung): > 100 µM
- TGI (NCI-H23 lung): > 100 µM
- TGI (SK-OV-3 ovarian): > 100 µM
- TGI (MDA-MB-435): > 100 µM
- TGI (ACHN renal): > 100 µM
- TGI (SW-620 colon): > 100 µM
- TGI (SNB-19 CNS): > 100 µM
- TGI (A549 NSCLC): > 100 µM
- TGI (OVCAR-4 ovarian): > 100 µM
- TGI (K-562 leukemia): > 100 µM
- TGI (MALME-3M melanoma): > 100 µM
- TGI (BT-549 breast): > 100 µM
- TGI (HCT-15 colon): > 100 µM
- TGI (NCI/ADR-RES ovarian): > 100 µM
- TGI (SK-MEL-2 melanoma): > 100 µM
- TGI (HT29 colon): > 100 µM
- TGI (OVCAR-8 ovarian): > 100 µM
- TGI (NCI-H226 lung): > 100 µM

Structure (SMILES): O=C1C(Cl)=C(Cl)C(=O)C2=C1C1c3ccccc3C2c2ccccc21
- TGI (IGROV1 ovarian): > 100 µM
- TGI (SF-539 CNS): 65.9 µM
- TGI (NCI-H460 lung): 99.2 µM
- TGI (M14 melanoma): > 100 µM
- TGI (UACC-257 melanoma): > 100 µM
- TGI (OVCAR-3 ovarian): > 100 µM
- TGI (SNB-75 CNS): > 100 µM
- TGI (MCF7 breast): > 100 µM
- TGI (OVCAR-5 ovarian): > 100 µM
- TGI (MDA-MB-231 breast): 65.2 µM
- TGI (MOLT-4 leukemia): > 100 µM
- TGI (UACC-62 melanoma): 79.9 µM
- TGI (U251 CNS): 45.4 µM
- TGI (TK-10 renal): > 100 µM
- TGI (SN12C renal): > 100 µM
- TGI (HL-60(TB) leukemia): 52.5 µM
- TGI (SF-268 CNS): > 100 µM
- TGI (SF-295 CNS): > 100 µM
- TGI (T-47D breast): 60.1 µM
- TGI (SK-MEL-5 melanoma): > 100 µM
- TGI (KM12 colon): > 100 µM
- TGI (HOP-62 NSCLC): 59.4 µM
- TGI (UO-31 renal): > 100 µM
- TGI (HS 578T breast): > 100 µM
- TGI (COLO 205 colon): 61.4 µM
- TGI (CCRF-CEM leukemia): > 100 µM
- TGI (DU-145 prostate): > 100 µM
- TGI (SK-MEL-28 melanoma): > 100 µM
- TGI (MDA-N): > 100 µM
- TGI (PC-3 prostate): > 100 µM
- TGI (RPMI-8226 leukemia): 53.5 µM
- TGI (EKVX NSCLC): > 100 µM
- TGI (HCT-116 colon): > 100 µM
- TGI (786-0 renal): 47.4 µM
- TGI (HCC-2998 colon): > 100 µM
- TGI (A498 renal): > 100 µM
- TGI (NCI-H522 lung): 33 µM
- TGI (NCI-H23 lung): > 100 µM
- TGI (SK-OV-3 ovarian): > 100 µM
- TGI (MDA-MB-435): > 100 µM
- TGI (ACHN renal): > 100 µM
- TGI (SW-620 colon): 59.5 µM
- TGI (SNB-19 CNS): > 100 µM
- TGI (A549 NSCLC): > 100 µM
- TGI (OVCAR-4 ovarian): > 100 µM
- TGI (K-562 leukemia): > 100 µM
- TGI (RXF 393 renal): 75.2 µM
- TGI (HOP-92 NSCLC): 43.5 µM
- TGI (MALME-3M melanoma): 57.7 µM
- TGI (BT-549 breast): > 100 µM
- TGI (HCT-15 colon): > 100 µM
- TGI (NCI/ADR-RES ovarian): > 100 µM
- TGI (SK-MEL-2 melanoma): > 100 µM
- TGI (HT29 colon): > 100 µM
- TGI (OVCAR-8 ovarian): > 100 µM
- TGI (NCI-H226 lung): > 100 µM

Structure (SMILES): Cc1cnc(-n2c(C)nc3cc(Cl)ccc3c2=O)s1
- TGI (IGROV1 ovarian): > 100 µM
- TGI (CAKI-1 renal): > 100 µM
- TGI (SF-539 CNS): 55.3 µM
- TGI (NCI-H460 lung): > 100 µM
- TGI (M14 melanoma): > 100 µM
- TGI (UACC-257 melanoma): 99.6 µM
- TGI (OVCAR-3 ovarian): > 100 µM
- TGI (SNB-75 CNS): 70.4 µM
- TGI (MCF7 breast): 56.5 µM
- TGI (OVCAR-5 ovarian): > 100 µM
- TGI (MDA-MB-231 breast): > 100 µM
- TGI (MOLT-4 leukemia): > 100 µM
- TGI (UACC-62 melanoma): 68.1 µM
- TGI (U251 CNS): > 100 µM
- TGI (TK-10 renal): > 100 µM
- TGI (SN12C renal): > 100 µM
- TGI (HL-60(TB) leukemia): > 100 µM
- TGI (SF-268 CNS): > 100 µM
- TGI (SF-295 CNS): > 100 µM
- TGI (T-47D breast): 68.9 µM
- TGI (SK-MEL-5 melanoma): 34 µM
- TGI (KM12 colon): > 100 µM
- TGI (HOP-62 NSCLC): > 100 µM
- TGI (UO-31 renal): 4.13 µM
- TGI (HS 578T breast): > 100 µM
- TGI (COLO 205 colon): 40.2 µM
- TGI (CCRF-CEM leukemia): > 100 µM
- TGI (DU-145 prostate): 66.4 µM
- TGI (SK-MEL-28 melanoma): > 100 µM
- TGI (MDA-N): 56.8 µM
- TGI (PC-3 prostate): > 100 µM
- TGI (EKVX NSCLC): 35.8 µM
- TGI (HCT-116 colon): 65.6 µM
- TGI (786-0 renal): > 100 µM
- TGI (HCC-2998 colon): 96.1 µM
- TGI (A498 renal): 61.7 µM
- TGI (LOX IMVI melanoma): > 100 µM
- TGI (NCI-H522 lung): 92.1 µM
- TGI (NCI-H23 lung): 97.7 µM
- TGI (SK-OV-3 ovarian): > 100 µM
- TGI (MDA-MB-435): > 100 µM
- TGI (ACHN renal): 90.9 µM
- TGI (SW-620 colon): > 100 µM
- TGI (SNB-19 CNS): > 100 µM
- TGI (A549 NSCLC): > 100 µM
- TGI (OVCAR-4 ovarian): > 100 µM
- TGI (K-562 leukemia): > 100 µM
- TGI (HOP-92 NSCLC): > 100 µM
- TGI (MALME-3M melanoma): > 100 µM
- TGI (BT-549 breast): > 100 µM
- TGI (HCT-15 colon): > 100 µM
- TGI (NCI/ADR-RES ovarian): 94.5 µM
- TGI (SK-MEL-2 melanoma): > 100 µM
- TGI (HT29 colon): > 100 µM
- TGI (OVCAR-8 ovarian): > 100 µM
- TGI (NCI-H226 lung): 93.8 µM

— PubChem BioAssay (NCI)
